Series [1] in a line: Cytotoxicity against mouse BMDM cells at <20 uM measured after 48 to 96 hrs by CCK-8 method. The series is classed as toxicity, cell-based. The conditions noted are these: time 48-96 hrs. In general terms: Tetrazolium dyes change colour on reduction, which living cells bring about.
For series [2], the system named is BMDM. As to the kind of experiment: Anti-osteoclastogenesis activity in RANKL-induced mouse BMDM cells assessed as reduction in TRAP-positive area at 10 uM measured after 4 days by TRAP staining based analysis. The series is classed as functional, cell-based. The conditions noted are these: time 4.0 day.
The subject of series [3] is BMDM. As to the kind of experiment: Anti-osteoclastogenesis activity in RANKL-induced mouse BMDM cells assessed as reduction in number of TRAP-positive cells at 10 uM measured after 4 days by TRAP staining based analysis. The series is classed as functional, cell-based. The conditions noted are these: time 4.0 day.
Series [4] concerns BMDM. As to the kind of experiment: Anti-osteoclastogenesis activity in RANKL-induced mouse BMDM cells assessed as downregulation of Acp mRNA expression at 10 uM measured after 4 days by RT-PCR analysis. The settings on record: time 4.0 day. The series is classed as functional, cell-based.
Series [5] relates to BMDM. As to the kind of experiment: Anti-osteoclastogenesis activity in RANKL-induced mouse BMDM cells assessed as downregulation of Fos mRNA expression at 10 uM measured after 4 days by RT-PCR analysis. The series is classed as functional, cell-based. The settings on record: time 4.0 day.
For series [6], the system named is BMDM. As to the kind of experiment: Anti-osteoclastogenesis activity in RANKL-induced mouse BMDM cells assessed as downregulation of Ctsk-mRNA expression at 10 uM measured after 4 days by RT-PCR analysis. The series is classed as functional, cell-based. The settings on record: time 4.0 day.
Series [7] deals with BMDM. As to the kind of experiment: Anti-osteoclastogenesis activity in RANKL-induced mouse BMDM cells assessed as downregulation of TRAP mRNA expression at 10 uM measured after 4 days by RT-PCR analysis. The series is classed as functional, cell-based. The settings on record: time 4.0 day.
A short description of series [8]: Drug uptake in male C57BL/6J mouse serum assessed as increase in acacetin level at 50 mg/kg, ip measured after 10 mins. The series is classed as ADME, organism-based. The settings on record: in vivo.
Series [9] has as its system Mus musculus. Description: Anti-osteoporosis activity LPS induced male C57BL/6J mouse model assessed as increase in BMD in femur at 5 mg/kg measured every 2 days for 12 day by Micro-CT 3D scanning method. The series is classed as functional, organism-based.
Series [10] deals with Mus musculus. As to the kind of experiment: Anti-osteoporosis activity LPS induced male C57BL/6J mouse model assessed as increase in trabecular bone volume fraction in femur at 5 mg/kg measured every 2 days for 12 day by Micro-CT 3D scanning method. The series is classed as functional, organism-based.
Series [11] relates to Mus musculus. As to the kind of experiment: Anti-osteoporosis activity LPS induced male C57BL/6J mouse model assessed as increase in trabecular thickness in femur at 5 mg/kg measured every 2 days for 12 day by Micro-CT 3D scanning method. The series is classed as functional, organism-based.
The test system of series [12] is Mus musculus. As to the kind of experiment: Anti-osteoporosis activity LPS induced male C57BL/6J mouse model assessed as increase in trabecular number in femur at 5 mg/kg measured every 2 days for 12 day by Micro-CT 3D scanning method. The series is classed as functional, organism-based.
Series [13] is filed under the species Mus musculus. As to the kind of experiment: Anti-osteoporosis activity LPS induced male C57BL/6J mouse model assessed as increase in density of cancellous bone trabeculae in femur by H and E staining based analysis. The series is classed as functional, organism-based.
The species named for series [14] is Mus musculus. As to the kind of experiment: Anti-osteoporosis activity LPS induced male C57BL/6J mouse model assessed as attenuation of number of osteoclast per unit of trabecular bone area by TRAP staining based analysis. The series is classed as functional, organism-based.
The test system of series [15] is Mus musculus. Description: Anti-osteoporosis activity in OVX-induced […] C57BL/6J mouse model assessed as improvement in BMD in femur at 5 mg/kg measured every three days for 7 weeks by Micro-CT 3D scanning analysis. The series is classed as functional, organism-based.
Series [16] relates to Mus musculus. As to the kind of experiment: Anti-osteoporosis activity in OVX-induced […] C57BL/6J mouse model assessed as improvement in trabecular bone volume fraction in femur at 5 mg/kg measured every three days for 7 weeks by Micro-CT 3D scanning analysis. The series is classed as functional, organism-based.
Series [17] relates to Mus musculus. Description: Anti-osteoporosis activity in OVX-induced […] C57BL/6J mouse model assessed as improvement in trabecular thickness in femur at 5 mg/kg measured every three days for 7 weeks by Micro-CT 3D scanning analysis. The series is classed as functional, organism-based.
Series [18] concerns Mus musculus. As to the kind of experiment: Anti-osteoporosis activity in OVX-induced […] C57BL/6J mouse model assessed as improvement in trabecular number in femur at 5 mg/kg measured every three days for 7 weeks by Micro-CT 3D scanning analysis. The series is classed as functional, organism-based.
The species named for series [19] is Mus musculus. As to the kind of experiment: Anti-osteoporosis activity OVX-induced […] C57BL/6J mouse model assessed as reduction of trabecular bone in femur by H and E staining based analysis. The series is classed as functional, organism-based.
Series [20] is filed under the species Mus musculus. As to the kind of experiment: Anti-osteoporosis activity OVX-induced […] C57BL/6J mouse model assessed as attenuation of number of osteoclast by TRAP staining based analysis. The series is classed as functional, organism-based.
Series [21] deals with RAW264.7. Description: Antiinflammatory activity in LPS-induced mouse RAW264.7 cells assessed as inhibition of Il6 mRNA expression at 10 uM preincubated for 3 hrs followed by LPS stimulation and measured after 6 hrs by RT-PCR analysis. The series is classed as functional, cell-based. The settings on record: time 9.0 hrs.
Series [22] relates to RAW264.7. As to the kind of experiment: Antiinflammatory activity in LPS-induced mouse RAW264.7 cells assessed as inhibition of Tnf mRNA expression at 10 uM preincubated for 3 hrs followed by LPS stimulation and measured after 6 hrs by RT-PCR analysis. The series is classed as functional, cell-based. The conditions noted are these: time 9.0 hrs.
Series [23] is described as follows: Drug uptake in male C57BL/6J mouse serum assessed as increase in acacetin level at 93.6 mg/kg, ip measured after 10 mins. The conditions noted are these: in vivo. The series is classed as ADME, organism-based.
Series [24] has as its system Mus musculus. As to the kind of experiment: Anti-osteoporosis activity LPS induced male C57BL/6J mouse model assessed as increase in trabecular bone volume fraction in femur at 9.36 mg/kg measured every 2 days for 12 day by Micro-CT 3D scanning method. The series is classed as functional, organism-based.
For series [25], the system named is Mus musculus. As to the kind of experiment: Anti-osteoporosis activity LPS induced male C57BL/6J mouse model assessed as increase in trabecular number in femur at 9.36 mg/kg measured every 2 days for 12 day by Micro-CT 3D scanning method. The series is classed as functional, organism-based.
The species entered for series [26] is Mus musculus. As to the kind of experiment: Anti-osteoporosis activity LPS induced male C57BL/6J mouse model assessed as reduction of CTX-I level by ELISA method. The series is classed as functional, organism-based.
For series [27], the system named is Mus musculus. As to the kind of experiment: Anti-osteoporosis activity in OVX-induced […] C57BL/6J mouse model assessed as improvement in BMD in femur at 9.36 mg/kg measured every three days for 7 weeks by Micro-CT 3D scanning analysis. The series is classed as functional, organism-based.
In series [28] the test system is Mus musculus. As to the kind of experiment: Anti-osteoporosis activity in OVX-induced […] C57BL/6J mouse model assessed as improvement in trabecular bone volume fraction in femur at 9.36 mg/kg measured every three days for 7 weeks by Micro-CT 3D scanning analysis. The series is classed as functional, organism-based.
The test system of series [29] is Mus musculus. Description: Anti-osteoporosis activity in OVX-induced […] C57BL/6J mouse model assessed as improvement in trabecular thickness in femur at 9.36 mg/kg measured every three days for 7 weeks by Micro-CT 3D scanning analysis. The series is classed as functional, organism-based.
Series [30] concerns Mus musculus. As to the kind of experiment: Anti-osteoporosis activity in OVX-induced […] C57BL/6J mouse model assessed as improvement in trabecular number in femur at 9.36 mg/kg measured every three days for 7 weeks by Micro-CT 3D scanning analysis. The series is classed as functional, organism-based.
Series [31] is filed under the species Mus musculus. As to the kind of experiment: Anti-osteoporosis activity OVX-induced […] C57BL/6J mouse model assessed as reduction of CTX-I level by ELISA method. The series is classed as functional, organism-based.

Active and inactive are the calls of the source. The calls are words filed in the database; no cut-off is given here.

This passage reports Activity and Drug uptake results from ChEMBL document CHEMBL6127066, “Pegylation enhances the anti-osteoporosis activity of acacetin in both ovariectomized and LPS-stimulated mice” (Bioorg Med Chem, 2024).

As to `COc1ccc(-c2cc(=O)c3c(O)cc(O)cc3o2)cc1` [ACACETIN], the Activity result in series [1] is listed as “Non-Toxic”. Also, the result in series [2], in series [3], in series [4], in series [5], in series [6] and in series [7] was Active. Moreover, the result in series [9], in series [10], in series [11], in [12], in [13] and in [14] was Active. The result in [15], in series [16], in series [17], in series [18], in series [19] and in [20] was Active. Besides, the Drug uptake in series [8] was 489.59 ng/mL.
With `COCCOCCOCCOCCOCC(=O)Oc1cc(O)c2c(=O)cc(-c3ccc(OC)cc3)oc2c1`, the result in series [21], in series [22], in series [2], in [3], in series [4] and in series [5] was Active. The result in [6], in series [7], in [24], in series [25], in series [13] and in [14] was Active. Further, the result in series [26], in series [27], in series [28], in [29], in series [30] and in [19] was Active. The result in [20] and in series [31] was Active. In series [1], the Activity entry is listed as “Non-Toxic”. Moreover, the Drug uptake in series [23] worked out at 3528.82 ng/mL.
